Measurements reported in patent US20230137927A1, “INTERFERON TAU AS ANTIVIRAL THERAPY” (priority 2020, published 2023).
Read-outs that look alike come from different tables or passages of the source.

How the values were obtained:
hCoV-229E = hCoV-229E CPE assay; format: cell-based; details: Human coronavirus 229E
[1] = test system: SARS CoV-2 (USA_WA1/2020); assay: SARS-CoV-2 CPE assay in Vero E6 cells; format: cell-based; details: Severe acute respiratory syndrome coronavirus 2, Vero C1008, reference compounds in the same assay
hCoV-OC43 = assay: HCoV OC43 CPE assay in Huh7 cells; format: cell-based
[2] = Cytotoxicity in parallel with OC43 CPE assay, without virus; details: human
Huh7 cells = assay: as above; details: Huh7 cells; no virus; reference compounds
[3] = test system: DENV type 2 Rluc-NGC strain; assay: microbe, parasite or virus in culture; format: cell-based; details: Dengue virus, Vero
YFV 17D = assay: microbe, parasite or virus in culture; format: cell-based; details: Yellow fever virus
[4] = Betacoronavirus 1, OC43, Huh-7, read-out: Average Inhibition (%)

Question: Which IC50 (hCoV-229E; MRCS cells, data not shown, read-out: IC50) does the source give for `CCN(CC)CCCC(C)Nc1ccnc2cc(Cl)ccc12` (stereo not drawn) [Chloroquine] here?
Answer: 2.2 µM

Question: With `CCN(CCO)CCCC(C)Nc1ccnc2cc(Cl)ccc12` (stereo not drawn) [Hydroxychloroquine] as the compound, how does the IC50 [1] read?
Answer: 1.91 µM

Question: With `CCC(CC)COC(=O)[C@H](C)N[P@](=O)(OC[C@H]1O[C@@](C#N)(c2ccc3c(N)ncnn23)[C@H](O)[C@@H]1O)Oc1ccccc1` [Remdesivir] as the compound, how does the IC50 [1] read?
Answer: 3.9 µM

Question: And the EC50 (hCoV-OC43; Betacoronavirus 1, OC43, Huh-7)?
Answer: 0.0414 µM

Question: What about the inhibition at 0.000457 µM (hCoV-OC43; [4]) of the same compound?
Answer: -4.12%

Question: What about the inhibition at 0.001372 µM (hCoV-OC43; [4]) of the same compound?
Answer: -0.1%

Question: And the inhibition at 0.004115 µM (hCoV-OC43; [4])?
Answer: 1.54%

Question: And the inhibition at 0.01235 µM (hCoV-OC43; [4])?
Answer: 8.25%

Question: And the inhibition at 0.03704 µM (hCoV-OC43; [4])?
Answer: 30.4%

Question: And the inhibition at 0.11111 µM (hCoV-OC43; [4])?
Answer: 83.4%

Question: What about the inhibition at 0.33333 µM (hCoV-OC43; [4]) of the same compound?
Answer: 79.5%

Question: And the inhibition at 1 µM (hCoV-OC43; [4])?
Answer: 80.3%

Question: And the IC50 (hCoV-229E; 72 h)?
Answer: 0.0231 µM

Question: And the viability at 7 days, 0.046 µM [2]?
Answer: 100%

Question: And the viability at 7 days, 0.137 µM [2]?
Answer: 102%

Question: What about the viability at 7 days, 0.412 µM [2] of the same compound?
Answer: 104%

Question: And the viability at 7 days, 1.235 µM [2]?
Answer: 102%

Question: And the viability at 7 days, 3.704 µM [2]?
Answer: 86.9%

Question: What about the viability at 7 days, 11.11 µM [2] of the same compound?
Answer: 56.8%

Question: What about the viability at 7 days, 33.33 µM [2] of the same compound?
Answer: 36.9%

Question: What about the viability at 7 days, 100 µM [2] of the same compound?
Answer: 21.8%

Question: What about the CC50 (Huh7 cells) of the same compound?
Answer: 17.2 µM

Question: With `NC(=O)c1ncn([C@@H]2O[C@H](CO)[C@@H](O)[C@H]2O)n1` [Ribavirin] as the compound, how does the EC50 [3] read?
Answer: 32.2 µM

Question: And the inhibition at 0.015 µM [3]?
Answer: 14.9%

Question: What about the inhibition at 0.046 µM [3] of the same compound?
Answer: 14.9%

Question: And the inhibition at 0.137 µM [3]?
Answer: 10.8%

Question: And the inhibition at 0.412 µM [3]?
Answer: 13.5%

Question: And the inhibition at 1.235 µM [3]?
Answer: 31.1%

Question: And the inhibition at 3.704 µM [3]?
Answer: 20.3%

Question: What about the inhibition at 11.111 µM [3] of the same compound?
Answer: 24.3%

Question: And the inhibition at 33.333 µM [3]?
Answer: 60.8%

Question: What about the inhibition at 100 µM [3] of the same compound?
Answer: 98.7%

Question: What about the inhibition at 300 µM [3] of the same compound?
Answer: 100%

Question: What about the EC50 (YFV 17D; read-out: EC50 for YFV, FIG. 4B as described in Examples 3 & 4) of the same compound?
Answer: 225 µM

Question: And the EC50 (YFV 17D; read-out: EC50 for YFV, FIG. 4B legend)?
Answer: 136 µM

Question: And the CC50 (in vitro)?
Answer: > 699 µM
